Tests used:
[1] = target: T1, ATP-binding cassette sub-family C member 3 (Homo sapiens, UniProt O15438); assay: Drug uptake assessed as human MRP3-mediated drug transport using inside-out membrane vesicles by measuring +ATP/-ATP ratio by LC-MS/MS analysis; assay type: ADME
OATP2B1 = target: T2, OATP2B1 (Homo sapiens, UniProt O94956); assay: Drug uptake assessed as OATP2B1 (unknown origin)-mediated drug transport expressed in HEK293 cells by LC-MS/MS analysis relative to control; assay type: ADME, cell-based; settings: HEK293 cells expressing OATP2B1
T2 sequence (O94956 whole entry): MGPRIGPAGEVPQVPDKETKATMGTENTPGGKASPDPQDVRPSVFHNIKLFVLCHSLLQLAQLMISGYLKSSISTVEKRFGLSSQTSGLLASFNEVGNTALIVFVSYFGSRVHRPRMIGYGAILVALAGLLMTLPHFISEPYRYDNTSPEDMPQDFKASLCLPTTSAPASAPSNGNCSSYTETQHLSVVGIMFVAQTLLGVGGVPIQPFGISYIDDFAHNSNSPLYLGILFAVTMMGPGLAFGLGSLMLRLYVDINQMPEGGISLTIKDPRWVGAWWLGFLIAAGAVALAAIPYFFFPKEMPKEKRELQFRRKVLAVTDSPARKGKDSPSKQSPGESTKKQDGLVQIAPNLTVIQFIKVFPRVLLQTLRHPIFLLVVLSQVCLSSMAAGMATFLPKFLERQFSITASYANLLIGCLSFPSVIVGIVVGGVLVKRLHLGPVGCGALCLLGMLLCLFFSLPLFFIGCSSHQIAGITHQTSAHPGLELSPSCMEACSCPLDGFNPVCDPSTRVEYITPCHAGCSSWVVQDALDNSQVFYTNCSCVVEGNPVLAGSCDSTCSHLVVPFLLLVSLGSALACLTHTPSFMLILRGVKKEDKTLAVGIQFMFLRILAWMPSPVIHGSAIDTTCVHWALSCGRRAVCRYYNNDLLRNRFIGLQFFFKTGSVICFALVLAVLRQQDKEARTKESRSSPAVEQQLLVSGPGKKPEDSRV

[2] = Drug metabolism in human intestinal microsomes assessed as formation of scutellarein-6,7-diglucuronide after 7 mins by HPLC/UV analysis; assay type: ADME, Intestine, Microsome; settings: for Km / Vmax: human, microsomes, 7 min
[3] = target: Multidrug resistance-associated protein 1 (Homo sapiens, UniProt P33527); assay: Inhibition of human MRP1-mediated estradiol-17beta-D-glucuronide formation using inside-out membrane vesicles by LC-MS/MS analysis
[4] = target: T3, Broad substrate specificity ATP-binding cassette transporter ABCG2 (Homo sapiens, UniProt Q9UNQ0); assay: Drug uptake assessed as human BCRP-mediated drug transport using inside-out membrane vesicles by measuring +ATP/-ATP ratio by LC-MS/MS analysis; assay type: ADME
T3 sequence (Q9UNQ0 whole entry): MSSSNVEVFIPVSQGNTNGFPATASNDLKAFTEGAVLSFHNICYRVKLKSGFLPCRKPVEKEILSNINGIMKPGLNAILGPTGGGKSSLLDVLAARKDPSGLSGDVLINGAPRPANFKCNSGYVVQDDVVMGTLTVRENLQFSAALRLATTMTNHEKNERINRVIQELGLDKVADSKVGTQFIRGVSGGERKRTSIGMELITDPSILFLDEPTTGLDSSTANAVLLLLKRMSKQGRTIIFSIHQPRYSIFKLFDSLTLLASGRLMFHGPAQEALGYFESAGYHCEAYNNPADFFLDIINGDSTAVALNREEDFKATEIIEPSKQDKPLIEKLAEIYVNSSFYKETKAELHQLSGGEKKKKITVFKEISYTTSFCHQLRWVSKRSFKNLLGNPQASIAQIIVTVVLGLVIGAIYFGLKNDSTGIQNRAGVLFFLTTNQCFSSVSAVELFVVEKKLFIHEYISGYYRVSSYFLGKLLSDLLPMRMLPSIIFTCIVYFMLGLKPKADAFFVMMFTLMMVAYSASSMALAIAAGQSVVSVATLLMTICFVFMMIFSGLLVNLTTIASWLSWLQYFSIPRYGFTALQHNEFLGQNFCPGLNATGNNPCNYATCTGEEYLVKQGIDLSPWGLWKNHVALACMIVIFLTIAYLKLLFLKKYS

Liver microsome [5] = assay: Ratio of Vmax to Km for drug metabolism in human liver microsomes assessed as formation of scutellarein-6,7-diglucuronide after 7 mins by HPLC/UV analysis; assay type: ADME
[6] = target: ATP-binding cassette sub-family C member 2 (Homo sapiens, UniProt Q92887); assay: Inhibition of human MRP2-mediated estradiol-17beta-D-glucuronide formation using inside-out membrane vesicles by LC-MS/MS analysis
[7] = Ratio of Vmax to Km for drug metabolism in human intestinal microsomes assessed as formation of scutellarein-6,7-diglucuronide after 7 mins by HPLC/UV analysis; assay type: ADME, Intestine, Microsome
[8] = Drug metabolism in rat intestinal microsomes assessed as formation of scutellarein-6,7-diglucuronide after 7 mins by HPLC/UV analysis; assay type: ADME, Intestine, Microsome; settings: for Km / Vmax: rat, microsomes, 7 min
Liver microsome [9] = assay: Drug metabolism in human liver microsomes assessed as formation of scutellarein-6,7-diglucuronide after 7 mins by HPLC/UV analysis; assay type: ADME; settings: for Km / Vmax: human, microsomes, 7 min
[10] = target: T4, UDP-glucuronosyltransferase 1A10 (Homo sapiens, UniProt Q9HAW8); assay: Drug metabolism assessed as human recombinant UGT1A10-mediated formation of scutellarein-6,7-diglucuronide after 25 mins by HPLC/UV analysis; assay type: ADME
T4 sequence (Q9HAW8 whole entry): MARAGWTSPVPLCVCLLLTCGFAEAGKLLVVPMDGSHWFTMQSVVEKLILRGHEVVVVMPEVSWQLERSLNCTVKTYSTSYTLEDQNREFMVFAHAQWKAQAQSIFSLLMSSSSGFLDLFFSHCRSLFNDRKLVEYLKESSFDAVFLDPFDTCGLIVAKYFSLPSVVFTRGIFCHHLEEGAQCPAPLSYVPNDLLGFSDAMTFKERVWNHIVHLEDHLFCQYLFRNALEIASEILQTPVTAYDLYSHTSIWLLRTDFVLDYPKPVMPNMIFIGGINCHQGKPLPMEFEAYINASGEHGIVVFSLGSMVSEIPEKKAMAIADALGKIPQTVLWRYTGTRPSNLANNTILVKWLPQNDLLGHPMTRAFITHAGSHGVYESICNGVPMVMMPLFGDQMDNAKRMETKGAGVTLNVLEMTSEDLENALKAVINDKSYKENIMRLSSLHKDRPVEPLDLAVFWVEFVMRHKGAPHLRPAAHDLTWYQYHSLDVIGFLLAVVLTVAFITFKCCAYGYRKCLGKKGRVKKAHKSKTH

[11] = Ratio of Vmax to Km for drug metabolism in rat intestinal microsomes assessed as formation of scutellarein-6,7-diglucuronide after 7 mins by HPLC/UV analysis; assay type: ADME, Intestine, Microsome
[12] = target: T1, ATP-binding cassette sub-family C member 3; assay: Inhibition of human MRP3-mediated estradiol-17beta-D-glucuronide formation using inside-out membrane vesicles by LC-MS/MS analysis
[13] = target: ATP-dependent translocase ABCB1 (Homo sapiens, UniProt P08183); assay: Inhibition of human MDR1-mediated N-methyl quinine formation using inside-out membrane vesicles by LC-MS/MS analysis; assay type: ADME
ATP-dependent translocase ABCB1, sequence (P08183 whole entry): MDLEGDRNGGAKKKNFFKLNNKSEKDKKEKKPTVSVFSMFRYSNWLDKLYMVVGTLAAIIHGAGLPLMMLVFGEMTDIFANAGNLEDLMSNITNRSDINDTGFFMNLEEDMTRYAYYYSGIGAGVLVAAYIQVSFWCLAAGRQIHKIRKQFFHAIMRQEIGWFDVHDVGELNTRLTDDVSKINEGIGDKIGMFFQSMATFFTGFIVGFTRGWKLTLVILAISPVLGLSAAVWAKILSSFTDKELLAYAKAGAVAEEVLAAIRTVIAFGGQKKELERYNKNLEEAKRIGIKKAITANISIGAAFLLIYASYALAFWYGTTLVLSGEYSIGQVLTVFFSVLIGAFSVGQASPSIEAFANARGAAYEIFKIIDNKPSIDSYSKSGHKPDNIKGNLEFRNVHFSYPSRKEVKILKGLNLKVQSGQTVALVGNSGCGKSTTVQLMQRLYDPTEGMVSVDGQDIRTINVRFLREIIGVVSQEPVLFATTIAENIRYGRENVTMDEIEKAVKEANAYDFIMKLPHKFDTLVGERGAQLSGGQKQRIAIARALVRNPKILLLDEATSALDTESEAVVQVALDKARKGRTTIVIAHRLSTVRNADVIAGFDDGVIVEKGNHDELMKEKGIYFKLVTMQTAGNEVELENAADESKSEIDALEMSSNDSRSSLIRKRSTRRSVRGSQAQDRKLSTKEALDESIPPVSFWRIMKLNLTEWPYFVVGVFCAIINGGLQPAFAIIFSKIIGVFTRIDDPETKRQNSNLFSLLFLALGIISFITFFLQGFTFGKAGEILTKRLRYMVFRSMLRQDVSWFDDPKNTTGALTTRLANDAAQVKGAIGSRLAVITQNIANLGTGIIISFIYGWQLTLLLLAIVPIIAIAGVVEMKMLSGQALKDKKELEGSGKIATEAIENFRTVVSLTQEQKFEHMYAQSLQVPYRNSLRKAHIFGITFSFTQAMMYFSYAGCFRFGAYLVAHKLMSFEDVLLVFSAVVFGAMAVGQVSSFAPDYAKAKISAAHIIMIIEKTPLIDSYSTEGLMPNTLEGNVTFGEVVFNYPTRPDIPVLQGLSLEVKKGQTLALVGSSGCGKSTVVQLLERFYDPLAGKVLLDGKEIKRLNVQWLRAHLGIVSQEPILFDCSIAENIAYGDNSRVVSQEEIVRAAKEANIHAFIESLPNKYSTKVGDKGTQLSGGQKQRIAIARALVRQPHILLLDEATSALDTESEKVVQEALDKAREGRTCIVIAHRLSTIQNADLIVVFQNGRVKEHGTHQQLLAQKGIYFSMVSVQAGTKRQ

T1 sequence (O15438 whole entry): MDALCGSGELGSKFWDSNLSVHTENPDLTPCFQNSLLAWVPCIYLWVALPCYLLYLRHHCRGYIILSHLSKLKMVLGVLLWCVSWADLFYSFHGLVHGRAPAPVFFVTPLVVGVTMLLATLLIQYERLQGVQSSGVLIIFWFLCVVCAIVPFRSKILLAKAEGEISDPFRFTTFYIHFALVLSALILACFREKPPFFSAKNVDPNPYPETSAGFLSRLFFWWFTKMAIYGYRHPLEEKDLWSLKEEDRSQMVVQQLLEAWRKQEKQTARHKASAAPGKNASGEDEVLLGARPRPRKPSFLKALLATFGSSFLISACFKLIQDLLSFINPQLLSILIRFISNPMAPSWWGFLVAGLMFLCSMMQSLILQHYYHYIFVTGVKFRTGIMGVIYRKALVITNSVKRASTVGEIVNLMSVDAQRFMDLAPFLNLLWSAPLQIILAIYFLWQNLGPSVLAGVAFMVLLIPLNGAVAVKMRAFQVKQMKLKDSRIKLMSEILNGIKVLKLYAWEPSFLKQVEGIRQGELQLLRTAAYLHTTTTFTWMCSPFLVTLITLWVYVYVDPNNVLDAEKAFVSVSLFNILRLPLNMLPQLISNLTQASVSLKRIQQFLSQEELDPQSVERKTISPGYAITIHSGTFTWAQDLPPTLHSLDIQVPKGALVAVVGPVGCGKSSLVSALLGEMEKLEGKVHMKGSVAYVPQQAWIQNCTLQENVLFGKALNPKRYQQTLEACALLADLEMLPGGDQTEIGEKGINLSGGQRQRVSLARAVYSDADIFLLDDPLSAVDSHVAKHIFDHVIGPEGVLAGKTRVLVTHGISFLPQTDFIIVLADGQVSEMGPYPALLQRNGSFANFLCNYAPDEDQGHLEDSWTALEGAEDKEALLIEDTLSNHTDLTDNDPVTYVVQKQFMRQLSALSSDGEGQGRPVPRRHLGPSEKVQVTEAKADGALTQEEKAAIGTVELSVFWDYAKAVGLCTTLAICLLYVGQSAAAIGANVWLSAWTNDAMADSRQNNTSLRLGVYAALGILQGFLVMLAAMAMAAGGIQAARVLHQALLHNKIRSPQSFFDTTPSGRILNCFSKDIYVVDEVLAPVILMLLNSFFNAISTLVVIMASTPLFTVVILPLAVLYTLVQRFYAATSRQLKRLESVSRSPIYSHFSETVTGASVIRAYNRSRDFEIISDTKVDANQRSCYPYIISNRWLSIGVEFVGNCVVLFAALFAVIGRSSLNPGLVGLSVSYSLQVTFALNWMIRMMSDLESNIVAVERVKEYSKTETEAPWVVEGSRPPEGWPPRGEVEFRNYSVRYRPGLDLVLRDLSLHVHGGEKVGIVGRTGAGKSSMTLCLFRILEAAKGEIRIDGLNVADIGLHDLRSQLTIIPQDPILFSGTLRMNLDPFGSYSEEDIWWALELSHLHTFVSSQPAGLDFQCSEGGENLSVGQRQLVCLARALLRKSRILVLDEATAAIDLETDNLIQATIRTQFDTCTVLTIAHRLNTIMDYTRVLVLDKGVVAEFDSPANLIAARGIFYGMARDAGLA
ATP-binding cassette sub-family C member 2, sequence (Q92887 whole entry): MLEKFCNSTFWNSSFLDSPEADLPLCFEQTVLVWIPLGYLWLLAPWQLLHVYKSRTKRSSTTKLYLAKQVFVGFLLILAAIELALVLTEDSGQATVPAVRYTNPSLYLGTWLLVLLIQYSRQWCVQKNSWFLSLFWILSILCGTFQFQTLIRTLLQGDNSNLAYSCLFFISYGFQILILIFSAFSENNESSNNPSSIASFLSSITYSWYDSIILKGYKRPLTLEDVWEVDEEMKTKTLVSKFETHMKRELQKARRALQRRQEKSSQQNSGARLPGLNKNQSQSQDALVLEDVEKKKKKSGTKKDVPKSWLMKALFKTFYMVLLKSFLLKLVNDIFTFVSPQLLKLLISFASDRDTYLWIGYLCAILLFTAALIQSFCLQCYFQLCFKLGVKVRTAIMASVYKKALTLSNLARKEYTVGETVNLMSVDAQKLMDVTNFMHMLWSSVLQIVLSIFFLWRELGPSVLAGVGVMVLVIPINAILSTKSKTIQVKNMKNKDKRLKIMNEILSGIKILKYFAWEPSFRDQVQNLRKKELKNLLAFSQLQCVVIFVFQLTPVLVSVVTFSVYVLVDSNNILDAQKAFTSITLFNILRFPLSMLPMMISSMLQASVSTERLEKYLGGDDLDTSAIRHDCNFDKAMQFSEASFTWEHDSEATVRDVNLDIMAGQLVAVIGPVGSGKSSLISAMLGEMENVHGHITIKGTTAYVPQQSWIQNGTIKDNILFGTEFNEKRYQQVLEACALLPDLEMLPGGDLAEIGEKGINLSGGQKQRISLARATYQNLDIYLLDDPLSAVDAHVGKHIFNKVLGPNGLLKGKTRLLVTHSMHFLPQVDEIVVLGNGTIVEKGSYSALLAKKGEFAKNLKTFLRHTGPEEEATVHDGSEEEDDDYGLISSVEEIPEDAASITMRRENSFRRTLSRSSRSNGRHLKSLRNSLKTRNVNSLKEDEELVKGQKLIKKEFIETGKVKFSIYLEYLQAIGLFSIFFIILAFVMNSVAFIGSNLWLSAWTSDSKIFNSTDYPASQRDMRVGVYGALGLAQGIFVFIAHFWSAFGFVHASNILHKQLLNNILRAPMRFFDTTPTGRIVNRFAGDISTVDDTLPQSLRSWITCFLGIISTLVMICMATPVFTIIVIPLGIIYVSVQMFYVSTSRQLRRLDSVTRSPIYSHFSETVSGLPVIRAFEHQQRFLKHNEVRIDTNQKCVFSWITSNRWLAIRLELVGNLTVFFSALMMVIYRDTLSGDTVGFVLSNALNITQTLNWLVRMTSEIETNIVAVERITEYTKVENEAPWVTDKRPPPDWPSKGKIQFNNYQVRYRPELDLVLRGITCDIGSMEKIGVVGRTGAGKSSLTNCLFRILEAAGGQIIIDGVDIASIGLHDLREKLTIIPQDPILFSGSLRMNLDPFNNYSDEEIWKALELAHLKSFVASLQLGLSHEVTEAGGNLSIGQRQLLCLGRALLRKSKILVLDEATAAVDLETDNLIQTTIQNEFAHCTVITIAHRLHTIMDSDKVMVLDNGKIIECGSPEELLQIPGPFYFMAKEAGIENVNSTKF

SMILES	Ratio [1]	uptake ratio (OATP2B1)	Ki [2] [µM]	Km [2] [µM]	Vmax [2] [nmol/min/mg]	inhibition (INH) [3]	Ratio [4]	Vmax/Km (Liver microsome [5]) [µL/min/mg]	IC50 [6] [µM]	Vmax/Km [7] [µL/min/mg]	Ki [8] [µM]	Km [8] [µM]	Vmax [8] [nmol/min/mg]	Ki (Liver microsome [9]) [µM]	Km (Liver microsome [9]) [µM]	Vmax (Liver microsome [9]) [nmol/min/mg]	Ki [10] [µM]	Vmax/Km [11] [µL/min/mg]	inhibition (INH) [12]	inhibition (INH) [13]	further results
O=C(O)[C@H]1O[C@@H](Oc2cc3oc(-c4ccc(O)cc4)cc(=O)c3c(O)c2O)[C@H](O)[C@@H](O)[C@@H]1O [SCUTELLARIN]	1.61	65	59.5	643	11.9	Active	57.5	11.8	75	18.5	79	349	6.6	133	62.4	0.736	208	18.9	Not Active	Active	
O=C(O)[C@H]1O[C@@H](Oc2c(O)cc3oc(-c4ccc(O)cc4)cc(=O)c3c2O)[C@H](O)[C@@H](O)[C@@H]1O	1.61	20.4	11.8	156	17.1	Active	57.5	127	50	110	79.2	41.1	1.23	24	123	15.6	242	30	Active	Active	Vmax ([10]; human, recombinant enzyme, 25 min): 0.221 nmol/min/mg

— ChEMBL document CHEMBL3526031, “Mechanistic studies on the absorption and disposition of scutellarin in humans: selective OATP2B1-mediated hepatic uptake is a likely key determinant for its unique pharmacokinetic characteristics” (Drug Metab Dispos, 2012)
